Each block holds one compound with its values, some of them ahead of it. The source made the active and inactive calls.
What was measured:
Protein skinhead-1 = target: T1, Protein skinhead-1 (Caenorhabditis elegans, UniProt P34707); type: functional
T1 sequence (P34707 whole entry): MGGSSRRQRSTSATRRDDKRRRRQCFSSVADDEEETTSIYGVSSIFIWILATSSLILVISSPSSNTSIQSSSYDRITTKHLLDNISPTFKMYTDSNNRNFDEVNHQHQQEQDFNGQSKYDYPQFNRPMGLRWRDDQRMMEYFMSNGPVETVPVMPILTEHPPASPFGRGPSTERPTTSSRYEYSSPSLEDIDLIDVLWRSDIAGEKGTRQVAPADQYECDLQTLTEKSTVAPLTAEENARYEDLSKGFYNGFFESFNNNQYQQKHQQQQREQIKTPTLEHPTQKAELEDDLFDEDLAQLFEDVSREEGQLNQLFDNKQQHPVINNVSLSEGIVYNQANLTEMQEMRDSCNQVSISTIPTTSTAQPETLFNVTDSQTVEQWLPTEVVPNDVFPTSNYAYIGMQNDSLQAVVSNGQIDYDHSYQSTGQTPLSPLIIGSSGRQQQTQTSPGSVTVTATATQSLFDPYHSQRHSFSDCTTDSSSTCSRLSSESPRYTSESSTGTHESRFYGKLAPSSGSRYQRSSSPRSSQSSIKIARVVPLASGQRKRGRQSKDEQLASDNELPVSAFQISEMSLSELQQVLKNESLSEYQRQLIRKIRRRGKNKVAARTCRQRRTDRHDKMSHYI

[1] = target: FAD-linked sulfhydryl oxidase ALR (Homo sapiens, UniProt P55789); assay: ALR-catalysed DTT oxidation blockers – biochemical, H2O2 detection, luminescence, cherry-pick, dose response (AID 493248)
Sequence of FAD-linked sulfhydryl oxidase ALR (P55789 whole entry): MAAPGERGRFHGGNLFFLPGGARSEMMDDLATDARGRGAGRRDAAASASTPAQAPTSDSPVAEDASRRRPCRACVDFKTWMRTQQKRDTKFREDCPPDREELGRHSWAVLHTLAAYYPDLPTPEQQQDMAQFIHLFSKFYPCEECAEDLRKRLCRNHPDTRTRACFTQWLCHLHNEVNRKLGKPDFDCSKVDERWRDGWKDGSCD

[2] = target: T2, Calpain-2 catalytic subunit (Sus scrofa, UniProt P43367); assay: m-calpain protease blockers, concentration series – biochemical, fluorogenic peptide substrate, dose response (AID 1420); type: functional
T2 sequence (P43367 whole entry): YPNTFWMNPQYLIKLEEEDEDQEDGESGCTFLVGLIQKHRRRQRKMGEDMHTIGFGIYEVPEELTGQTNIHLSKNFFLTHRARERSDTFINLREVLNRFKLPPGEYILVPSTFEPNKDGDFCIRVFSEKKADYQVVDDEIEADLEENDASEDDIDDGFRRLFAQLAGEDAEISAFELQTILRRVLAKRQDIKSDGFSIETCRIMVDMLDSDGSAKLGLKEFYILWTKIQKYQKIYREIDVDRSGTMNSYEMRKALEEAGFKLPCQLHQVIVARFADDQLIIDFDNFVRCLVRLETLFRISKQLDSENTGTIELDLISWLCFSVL

[3] = target: T3, Polyadenylate-binding protein 1 (Homo sapiens, UniProt P11940); assay: MLLE binding blockers, Cy5 peptide tracer – biochemical, fluorescence polarization, Cy5-PAM2 peptide, secondary, miRNA deadenylation inhibitor project, dose response (AID 602260); type: functional; details: read-out: IC50_Mean
T3 sequence (P11940 whole entry, the tested form may be a part): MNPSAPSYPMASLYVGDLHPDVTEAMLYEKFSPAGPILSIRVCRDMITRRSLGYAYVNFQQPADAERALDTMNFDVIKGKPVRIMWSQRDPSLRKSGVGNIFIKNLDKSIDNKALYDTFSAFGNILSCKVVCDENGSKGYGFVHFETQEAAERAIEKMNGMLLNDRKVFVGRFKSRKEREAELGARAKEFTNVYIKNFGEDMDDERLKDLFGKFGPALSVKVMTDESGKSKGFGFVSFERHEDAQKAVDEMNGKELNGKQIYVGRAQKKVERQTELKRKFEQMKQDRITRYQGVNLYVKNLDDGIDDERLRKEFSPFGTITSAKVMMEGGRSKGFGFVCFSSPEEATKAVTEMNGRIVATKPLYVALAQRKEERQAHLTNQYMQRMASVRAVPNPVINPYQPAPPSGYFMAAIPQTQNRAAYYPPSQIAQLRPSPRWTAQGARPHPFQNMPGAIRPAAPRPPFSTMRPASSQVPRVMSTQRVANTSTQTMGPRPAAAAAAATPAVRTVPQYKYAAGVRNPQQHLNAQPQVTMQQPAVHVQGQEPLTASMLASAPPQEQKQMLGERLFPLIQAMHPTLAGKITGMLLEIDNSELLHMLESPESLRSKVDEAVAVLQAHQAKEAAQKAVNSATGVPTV

[4] = target: T3, Polyadenylate-binding protein 1; assay: MLLE domain peptide-binding blockers, IC50 – biochemical, fluorescence polarization, FITC-PAM2 peptide, dose response (AID 602259); type: functional; details: read-out: IC50_Mean
[5] = intracellular Trypanosoma cruzi inhibitors in host cells – cell-based, plate reader, cherry-pick samples, set 3, dose response (AID 651818); type: functional;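 further: compounds incubated with infected cells for about four days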
[6] = target: T4, High affinity choline transporter 1 (Homo sapiens, UniProt Q9GZV3); assay: human choline transporter blockers, potency – cell-based, 5-point CRC, membrane potential dye, dose response (AID 504840); type: functional
T4 sequence (Q9GZV3 whole entry): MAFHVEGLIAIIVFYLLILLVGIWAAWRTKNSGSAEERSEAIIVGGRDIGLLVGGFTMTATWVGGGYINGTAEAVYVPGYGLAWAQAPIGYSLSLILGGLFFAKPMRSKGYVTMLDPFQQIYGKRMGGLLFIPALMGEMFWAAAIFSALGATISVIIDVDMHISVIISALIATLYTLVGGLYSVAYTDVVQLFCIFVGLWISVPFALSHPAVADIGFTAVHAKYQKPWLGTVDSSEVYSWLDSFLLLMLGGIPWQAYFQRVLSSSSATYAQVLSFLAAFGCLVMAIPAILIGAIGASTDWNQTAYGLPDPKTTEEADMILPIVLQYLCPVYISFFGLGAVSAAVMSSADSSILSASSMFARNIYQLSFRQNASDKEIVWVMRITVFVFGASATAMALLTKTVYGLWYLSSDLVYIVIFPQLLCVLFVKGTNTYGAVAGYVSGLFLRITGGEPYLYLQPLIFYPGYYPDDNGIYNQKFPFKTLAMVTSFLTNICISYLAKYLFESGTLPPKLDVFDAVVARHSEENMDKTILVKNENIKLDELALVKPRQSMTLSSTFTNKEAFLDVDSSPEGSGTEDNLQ

[7] = viability of HCT116 lacking mutant beta-catenin – cell-based, human colon tumor, dose response (AID 1045); type: functional;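 further: HCT116 colon tumor cells with beta catenin knocked out; cells exposed to compound for 60 hours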
[8] = viability of PTEN-deleted HCT116 cells – cell-based, HCT116 PTEN knockout, dose response (AID 1047); type: functional;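 further: HCT116 colon tumor cells with PTEN knocked out; cells exposed to compound for 60 hours before readout; potency for loss of cell viability measured by luminescence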
[9] = fluconazole-exposed Candida albicans growth modulators – fluorescence, retest, confirmation (AID 2467); type: functional, cell-based
[10] = NIH-3T3 fibroblast cytotoxicity, dose response, cytotoxicity control, cell-based, fluorescence, Alamar Blue, secondary assay (AID 2327); type: functional;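 further: NIH-3T3 mouse fibroblasts cultured with fluconazole at 8 µg/mL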
[11] = target: T5, Corticotropin-releasing factor receptor 2/Corticotropin-releasing factor-binding protein (Homo sapiens, UniProt P24387+Q13324); assay: activators of CRF receptor 2 with binding protein – uHTS hits, confirmation (AID 602473); type: functional; details: read-out: EC50_Mean
T5 sequence (Q13324 whole entry): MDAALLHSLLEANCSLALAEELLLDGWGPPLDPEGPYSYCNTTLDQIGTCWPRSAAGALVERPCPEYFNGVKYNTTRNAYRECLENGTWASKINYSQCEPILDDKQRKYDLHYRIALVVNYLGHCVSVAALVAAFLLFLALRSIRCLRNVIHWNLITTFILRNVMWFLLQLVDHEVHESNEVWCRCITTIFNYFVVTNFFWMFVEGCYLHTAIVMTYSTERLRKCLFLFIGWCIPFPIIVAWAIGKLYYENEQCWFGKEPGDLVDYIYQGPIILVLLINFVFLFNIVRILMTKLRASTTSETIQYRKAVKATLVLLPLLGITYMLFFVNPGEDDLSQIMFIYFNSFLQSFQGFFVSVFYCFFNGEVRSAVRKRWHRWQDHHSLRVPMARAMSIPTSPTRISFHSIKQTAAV
T5 sequence (P24387 whole entry): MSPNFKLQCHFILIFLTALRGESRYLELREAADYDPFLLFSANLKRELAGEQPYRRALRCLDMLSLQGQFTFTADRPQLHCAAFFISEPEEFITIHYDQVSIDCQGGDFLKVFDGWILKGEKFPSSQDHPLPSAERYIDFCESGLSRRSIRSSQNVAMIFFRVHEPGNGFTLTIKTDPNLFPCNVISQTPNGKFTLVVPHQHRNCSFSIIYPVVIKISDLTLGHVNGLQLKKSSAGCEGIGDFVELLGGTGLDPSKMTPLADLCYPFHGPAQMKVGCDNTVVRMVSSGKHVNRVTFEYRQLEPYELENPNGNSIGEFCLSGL

[12] = target: T6, Rac GTPase-activating protein 1 (Homo sapiens, UniProt Q9H0H5); assay: blockers of MgcRacGAP-driven Rac1 GTP hydrolysis – biochemical, ADP Hunter fluorescence, primary and confirmatory, confirmation (AID 624330); type: functional
T6 sequence (Q9H0H5 whole entry): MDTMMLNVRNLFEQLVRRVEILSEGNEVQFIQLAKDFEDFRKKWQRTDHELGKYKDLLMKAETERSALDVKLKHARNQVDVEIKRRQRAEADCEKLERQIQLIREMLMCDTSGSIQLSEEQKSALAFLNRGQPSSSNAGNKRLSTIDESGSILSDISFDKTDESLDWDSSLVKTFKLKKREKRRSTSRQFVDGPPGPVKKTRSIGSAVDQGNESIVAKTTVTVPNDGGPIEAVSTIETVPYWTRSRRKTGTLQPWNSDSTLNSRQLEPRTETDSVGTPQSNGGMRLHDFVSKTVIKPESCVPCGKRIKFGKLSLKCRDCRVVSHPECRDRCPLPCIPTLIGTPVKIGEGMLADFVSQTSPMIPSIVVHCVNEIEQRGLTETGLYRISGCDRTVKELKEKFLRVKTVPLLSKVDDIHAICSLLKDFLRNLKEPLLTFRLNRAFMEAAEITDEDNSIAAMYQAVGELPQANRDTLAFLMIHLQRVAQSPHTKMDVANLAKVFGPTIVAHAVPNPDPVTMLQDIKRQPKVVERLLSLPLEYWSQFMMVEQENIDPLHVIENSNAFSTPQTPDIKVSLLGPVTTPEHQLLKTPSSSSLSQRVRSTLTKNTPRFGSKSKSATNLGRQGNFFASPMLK

IC50 (Protein skinhead-1): > 100 µM (inactive)
SMILES: Brc1cccc(-c2nc3ccc(Br)cn3c2Cc2ccsc2)c1

AC50 [1]: 3.31 µM (active)
SMILES: O=C(NCc1cccnc1)c1ccc2c(c1)N(Cc1ccccc1)CCS2

IC50 [2]: 36.7 µM (not active) | IC50 [3]: > 66 µM (inactive) | IC50 [4]: > 66 µM (inactive)
SMILES: CCCN(CCC)C(=S)NC(=O)c1ccc(-c2ccccc2)cc1

SMILES: C[C@H]1CN([C@@H](C)CO)C(=O)c2cccc(NC(=O)CCCCCC(=O)Nc3ccccc3N)c2O[C@H]1CN(C)Cc1ccc(Cl)c(Cl)c1
AC50 [5]: 3.18 µM (active)

IC50 [3]: > 66 µM (inactive) | IC50 [4]: > 66 µM (inactive) | AC50 [1]: 0.301 µM (active)
SMILES: Fc1ccc(-c2ccnc(S)n2)cc1

AC50 [1]: 4.38 µM (active)
SMILES: Cc1cc(N2CCN(c3ccccc3)CC2)nc(N)n1

SMILES: C[C@@H]1CCCCO[C@H](CN(C)C(=O)Nc2ccc(C(F)(F)F)cc2)[C@@H](C)CN([C@H](C)CO)C(=O)c2cc(NS(=O)(=O)c3ccc(Cl)cc3)ccc2O1
AC50 [5]: 4.76 µM (active)

SMILES: Cc1noc(C)c1S(=O)(=O)Nc1cccc2c1O[C@H](CN(C)Cc1ccc(C(=O)Nc3ccccc3N)cc1)[C@H](C)CN([C@@H](C)CO)C2=O
AC50 [5]: 2.03 µM (active)

AC50 [1]: 4.37 µM (active)
SMILES: O=C1CC(=O)N(c2ccccc2)N1c1ccccc1

SMILES: C[C@H](CO)N1C[C@H](C)[C@H](CN(C)S(=O)(=O)c2ccc(F)cc2)Oc2ccc(NC(=O)Nc3ccc(C(F)(F)F)cc3)cc2CC1=O
AC50 [5]: 2.56 µM (active)

IC50 [6]: 0.794 µM (active) | AC50 [1]: 6.86 µM (active)
SMILES: Cc1ccc(S(=O)(=O)N2[C@@H](c3ccc(Cl)cc3)C(C(=O)O)=CC[C@H]2c2ccc(Cl)c(Cl)c2)cc1

SMILES: COc1cc(C2C(C#N)=C(C)N=C3C2=C(O)c2ccccc23)cc(OC)c1OC (stereo not drawn)
EC50 [7]: 21.5 µM (active) | EC50 [8]: 16.1 µM (active)

SMILES: C[C@@H]1CN([C@@H](C)CO)C(=O)c2cccc(NC(=O)CCCCCC(=O)Nc3ccccc3N)c2O[C@H]1CN(C)Cc1ccccc1
AC50 [5]: 2.43 µM (active)

SMILES: O=C(C1CCCN(S(=O)(=O)c2ccc(F)cc2)C1)N(Cc1cccs1)C1CC1 (stereo not drawn)
EC50 [7]: 137 µM (active) | EC50 [8]: 51.6 µM (active)

SMILES: COc1ccc(NS(=O)(=O)c2ccc(N/N=C/c3ccc(N4CCOCC4)cc3)c([N+](=O)[O-])c2)cc1
EC50 [7]: 5.68 µM (active) | EC50 [8]: 6.25 µM (active)

SMILES: C[C@@H]1CN([C@@H](C)CO)C(=O)c2cccc(NC(=O)Nc3ccc4c(c3)OCO4)c2O[C@@H]1CN(C)Cc1ccc(Oc2ccccc2)cc1
AC50 [5]: 3.77 µM (active)

SMILES: CN(C)CCNC(=O)c1ccc(COc2ccc(Cl)cc2Cl)cc1
EC50 [7]: 9 µM (active) | EC50 [8]: 10.7 µM (active)

SMILES: COc1ccc(C(C(=O)NC2CCCCC2)N(Cc2cccs2)C(=O)Cc2c[nH]c3ccccc23)cc1 (stereo not drawn)
IC50 (Protein skinhead-1): > 100 µM (inactive) | EC50 [9]: > 38 µM (not active) | EC50 [10]: > 150 µM (inactive)

SMILES: C[C@H](CO)N1C[C@H](C)[C@H](CN(C)Cc2ccc(C(=O)Nc3ccccc3N)cc2)Oc2c(NC(=O)Nc3ccc(F)cc3)cccc2C1=O
AC50 [5]: 1.06 µM (active)

SMILES: C[C@H](CO)N1C[C@H](C)[C@@H](CN(C)Cc2ccc(C(=O)Nc3ccccc3N)cc2)Oc2c(NS(=O)(=O)c3ccccc3)cccc2C1=O
AC50 [5]: 4.71 µM (active)

IC50 (Protein skinhead-1): > 100 µM (inactive)
SMILES: Cc1cccc(NC(=O)c2ccc3c(c2)C(=O)N(c2ccccc2C)C3=O)n1

IC50 (Protein skinhead-1): > 100 µM (inactive)
SMILES: c1ccc(-c2ccc(-c3nc(-c4cccnc4)no3)cc2)cc1

IC50 (Protein skinhead-1): 39.8 µM (active)
SMILES: O=[N+]([O-])c1cccc(/C=C/c2ccccn2)c1

SMILES: C#CC[N+](C)(C)CCCCCCCC
EC50 [7]: 16 µM (active) | EC50 [8]: 13.6 µM (active) | EC50 [11]: > 53 µM (inactive)

IC50 (Protein skinhead-1): 21.3 µM (active)
SMILES: Nc1ccc(C=C2C=Cc3ccccc32)cc1

AC50 [1]: 0.58 µM (active)
SMILES: CC(=O)NNc1nc(-c2ccc(NC(C)=O)cc2)cs1

SMILES: N#Cc1cc2c(nc1SCC(=O)Nc1cc(Cl)ccc1Cl)C1CCN2CC1
EC50 [7]: 3.02 µM (active) | EC50 [8]: 6 µM (active)

IC50 [12]: 47.9 µM (active) | AC50 [1]: 2.3 µM (active)
SMILES: COc1cc(/C=N/n2c(S)nnc2C2CCCCC2)ccc1O

— ChEMBL document CHEMBL1201862, “PubChem BioAssay data set” (2004)
